Results on 29 compounds are retold here after US8691865B2 (AbbVie Inc., priority 2008, dated 2014).

The term IC50 denotes the concentration that gives 50% inhibition.

Sequence of human Cav2.2 (Q00975 whole entry): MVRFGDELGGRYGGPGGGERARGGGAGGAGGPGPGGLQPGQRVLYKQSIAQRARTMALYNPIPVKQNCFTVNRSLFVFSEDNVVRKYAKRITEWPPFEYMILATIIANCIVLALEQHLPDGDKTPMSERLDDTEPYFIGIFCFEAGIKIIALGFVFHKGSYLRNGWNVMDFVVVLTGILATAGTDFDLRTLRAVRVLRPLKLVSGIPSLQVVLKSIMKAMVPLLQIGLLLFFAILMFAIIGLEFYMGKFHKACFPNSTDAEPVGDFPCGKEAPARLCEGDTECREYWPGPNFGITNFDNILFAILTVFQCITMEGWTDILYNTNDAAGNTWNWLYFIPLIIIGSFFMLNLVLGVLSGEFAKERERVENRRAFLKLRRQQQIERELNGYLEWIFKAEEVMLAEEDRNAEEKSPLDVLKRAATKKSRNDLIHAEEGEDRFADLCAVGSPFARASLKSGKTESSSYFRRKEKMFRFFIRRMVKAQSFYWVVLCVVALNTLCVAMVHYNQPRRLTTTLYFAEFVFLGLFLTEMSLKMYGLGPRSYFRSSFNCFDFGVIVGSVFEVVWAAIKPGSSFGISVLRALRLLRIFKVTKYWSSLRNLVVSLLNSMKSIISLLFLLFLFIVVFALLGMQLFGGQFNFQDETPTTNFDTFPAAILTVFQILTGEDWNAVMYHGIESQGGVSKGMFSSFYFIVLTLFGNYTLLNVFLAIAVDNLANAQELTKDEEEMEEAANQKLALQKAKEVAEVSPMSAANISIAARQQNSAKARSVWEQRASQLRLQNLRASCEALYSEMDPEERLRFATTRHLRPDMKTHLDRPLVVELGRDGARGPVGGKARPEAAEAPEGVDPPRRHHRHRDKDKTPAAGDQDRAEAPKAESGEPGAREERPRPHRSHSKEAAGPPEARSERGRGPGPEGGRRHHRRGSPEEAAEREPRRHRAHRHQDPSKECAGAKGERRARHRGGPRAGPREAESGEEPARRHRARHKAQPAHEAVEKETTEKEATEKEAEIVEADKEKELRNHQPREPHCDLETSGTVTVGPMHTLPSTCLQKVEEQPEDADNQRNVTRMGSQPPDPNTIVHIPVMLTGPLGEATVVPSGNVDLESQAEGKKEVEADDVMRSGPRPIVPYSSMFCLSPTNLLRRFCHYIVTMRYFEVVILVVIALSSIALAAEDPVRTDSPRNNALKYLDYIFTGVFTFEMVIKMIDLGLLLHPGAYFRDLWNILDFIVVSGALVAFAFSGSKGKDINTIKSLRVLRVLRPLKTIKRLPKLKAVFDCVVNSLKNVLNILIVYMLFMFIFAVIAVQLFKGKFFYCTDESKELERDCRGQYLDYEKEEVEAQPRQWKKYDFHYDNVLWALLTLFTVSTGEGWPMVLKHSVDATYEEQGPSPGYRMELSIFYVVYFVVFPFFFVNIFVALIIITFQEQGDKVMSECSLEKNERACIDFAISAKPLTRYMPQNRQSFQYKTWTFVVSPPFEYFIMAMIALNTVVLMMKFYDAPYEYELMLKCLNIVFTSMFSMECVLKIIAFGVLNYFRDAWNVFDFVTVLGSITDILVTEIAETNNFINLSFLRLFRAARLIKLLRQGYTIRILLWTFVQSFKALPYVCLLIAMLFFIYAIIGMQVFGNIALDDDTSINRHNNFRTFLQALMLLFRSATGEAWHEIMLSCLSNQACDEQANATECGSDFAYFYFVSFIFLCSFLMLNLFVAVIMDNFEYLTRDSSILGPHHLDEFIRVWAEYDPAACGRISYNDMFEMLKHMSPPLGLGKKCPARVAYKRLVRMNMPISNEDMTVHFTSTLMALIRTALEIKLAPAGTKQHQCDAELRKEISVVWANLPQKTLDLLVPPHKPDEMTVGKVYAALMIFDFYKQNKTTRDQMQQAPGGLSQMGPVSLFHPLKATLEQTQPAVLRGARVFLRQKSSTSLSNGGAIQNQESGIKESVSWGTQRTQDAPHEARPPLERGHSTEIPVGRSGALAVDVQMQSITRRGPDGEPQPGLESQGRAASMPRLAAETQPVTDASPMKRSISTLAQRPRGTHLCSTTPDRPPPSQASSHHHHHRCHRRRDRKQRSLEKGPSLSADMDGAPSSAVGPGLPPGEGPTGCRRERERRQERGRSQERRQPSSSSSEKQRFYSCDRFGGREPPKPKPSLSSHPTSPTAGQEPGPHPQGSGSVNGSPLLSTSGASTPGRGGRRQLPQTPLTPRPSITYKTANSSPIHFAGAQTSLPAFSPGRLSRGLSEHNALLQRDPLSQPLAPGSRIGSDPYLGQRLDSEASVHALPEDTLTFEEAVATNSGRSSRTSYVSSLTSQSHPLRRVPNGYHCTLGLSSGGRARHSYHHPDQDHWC
Sequence of human Cav2.2 (P54289 25-956 partner limits assumed): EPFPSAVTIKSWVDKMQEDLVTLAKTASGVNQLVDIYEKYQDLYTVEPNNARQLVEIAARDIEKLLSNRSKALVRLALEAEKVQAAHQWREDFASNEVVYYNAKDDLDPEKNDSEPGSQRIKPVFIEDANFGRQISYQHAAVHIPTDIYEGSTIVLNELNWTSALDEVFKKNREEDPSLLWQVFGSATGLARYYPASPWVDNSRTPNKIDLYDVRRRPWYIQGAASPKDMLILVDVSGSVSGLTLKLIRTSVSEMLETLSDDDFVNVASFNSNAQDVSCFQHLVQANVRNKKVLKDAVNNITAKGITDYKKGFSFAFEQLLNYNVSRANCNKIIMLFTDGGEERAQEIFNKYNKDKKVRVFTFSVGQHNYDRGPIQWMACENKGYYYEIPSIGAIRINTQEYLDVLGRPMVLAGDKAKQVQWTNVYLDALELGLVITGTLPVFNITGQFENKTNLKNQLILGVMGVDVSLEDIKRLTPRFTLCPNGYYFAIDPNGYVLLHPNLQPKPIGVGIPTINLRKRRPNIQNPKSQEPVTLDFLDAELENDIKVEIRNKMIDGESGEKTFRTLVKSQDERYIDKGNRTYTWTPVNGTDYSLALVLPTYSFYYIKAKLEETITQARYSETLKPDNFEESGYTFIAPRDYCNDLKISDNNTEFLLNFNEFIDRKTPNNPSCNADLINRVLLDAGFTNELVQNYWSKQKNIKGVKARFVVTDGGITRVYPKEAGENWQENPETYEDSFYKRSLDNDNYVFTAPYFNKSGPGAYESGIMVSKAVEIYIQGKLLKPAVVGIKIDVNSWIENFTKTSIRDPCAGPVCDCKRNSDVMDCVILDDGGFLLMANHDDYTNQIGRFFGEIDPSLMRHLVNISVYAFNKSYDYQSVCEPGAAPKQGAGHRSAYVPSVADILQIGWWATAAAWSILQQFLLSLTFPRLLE
Sequence of human Cav2.2 (P54289 957-1103 partner limits assumed): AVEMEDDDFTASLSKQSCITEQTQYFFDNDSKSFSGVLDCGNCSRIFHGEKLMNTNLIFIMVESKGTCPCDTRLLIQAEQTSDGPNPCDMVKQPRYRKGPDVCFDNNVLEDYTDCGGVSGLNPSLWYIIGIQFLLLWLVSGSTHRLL
Sequence of human Cav2.2 (P54284 whole entry partner): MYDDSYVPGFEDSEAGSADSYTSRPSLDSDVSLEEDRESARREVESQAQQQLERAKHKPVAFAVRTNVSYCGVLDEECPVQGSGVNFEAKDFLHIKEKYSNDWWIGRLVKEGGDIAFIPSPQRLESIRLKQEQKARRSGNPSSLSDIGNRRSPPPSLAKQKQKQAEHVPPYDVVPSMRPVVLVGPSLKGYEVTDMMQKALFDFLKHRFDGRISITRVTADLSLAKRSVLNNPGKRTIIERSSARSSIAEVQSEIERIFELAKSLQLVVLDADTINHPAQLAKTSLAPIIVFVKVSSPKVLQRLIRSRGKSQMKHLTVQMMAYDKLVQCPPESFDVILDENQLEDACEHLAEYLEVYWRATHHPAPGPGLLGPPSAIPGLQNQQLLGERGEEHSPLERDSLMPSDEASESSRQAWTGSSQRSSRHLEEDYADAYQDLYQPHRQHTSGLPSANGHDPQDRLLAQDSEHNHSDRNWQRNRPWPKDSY

In this experiment the target is human Cav2.2 (Homo sapiens, UniProt Q00975). As to the kind of experiment: Assessment of calcium channel activity using FLIPR (Ca2+ influx in IMR32 cells). Format: cell-based. The procedure, abridged:
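Human neuroblastoma IMR32 cells were seeded at 1−1.2×10^5 cells/well and cultured 48 h at 37 °C before FLIPR calcium influx measurement. Percent inhibition at each concentration was calculated against the no-inhibitor signal, and IC50 came from sigmoidal dose-response fits.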
For the compound `COc1ccccc1N1C[C@H]2CC[C@H](NC(=O)[C@@H]3C[C@@H](F)CN3)[C@H]2C1` [Example 662, (4R)-4-fluoro-N-[(3aR,4S,6aS)-2-(2-methoxyphenyl)octahydrocyclopenta[c]pyrrol-4-yl]-L-prolinamide], the IC50 is more than 30000 nM.

For `FC(F)(F)c1cccc(N2C[C@H]3CC[C@H](NCc4ccn[nH]4)[C@H]3C2)n1` [Example 663, (3aR,4S,6aS)-N-(1H-pyrazol-5-ylmethyl)-2-[6-(trifluoromethyl)pyridin-2-yl]octahydrocyclopenta[c]pyrrol-4-amine], the IC50 came to 1890 nM.

Turning to `Cc1c(CN[C@H]2CC[C@@H]3CN(c4cccc(C(F)(F)F)n4)C[C@@H]32)[nH]c2ccccc12` [Example 664, (3aR,4S,6aS)-N-[(3-methyl-1H-indol-2-yl)methyl]-2-[6-(trifluoromethyl)pyridin-2-yl]octahydrocyclopenta[c]pyrrol-4-amine], the concentration for half-maximal inhibition (IC50) is 1690 nM.

Take `FC(F)(F)c1cccc(N2C[C@H]3CC[C@H](NCc4cc5cc(Cl)ccc5[nH]4)[C@H]3C2)n1` [Example 665, (3aR,4S,6aS)-N-[(5-chloro-1H-indol-2-yl)methyl]-2-[6-(trifluoromethyl)pyridin-2-yl]octahydrocyclopenta[c]pyrrol-4-amine]: the 50% inhibitory concentration (IC50) was 2990 nM.

With `FC(F)(F)c1cccc(N2C[C@H]3CC[C@H](NCc4c[nH]nc4-c4ccc(Cl)cc4)[C@H]3C2)n1` [Example 666, (3aR,4S,6aS)-N-{[3-(4-chlorophenyl)-1H-pyrazol-4-yl]methyl}-2-[6-(trifluoromethyl)pyridin-2-yl]octahydrocyclopenta[c]pyrrol-4-amine], the concentration for half-maximal inhibition (IC50) stood at 1370 nM.

With `Cc1c(CN[C@H]2CC[C@@H]3CN(c4cccc(C(F)(F)F)n4)C[C@@H]32)[nH]c2ccc(F)cc12` [Example 667, (3aR,4S,6aS)-N-[(5-fluoro-3-methyl-1H-indol-2-yl)methyl]-2-[6-(trifluoromethyl)pyridin-2-yl]octahydrocyclopenta[c]pyrrol-4-amine], the IC50 amounted to 1490 nM.

Regarding `COc1ccc2[nH]c(CN[C@H]3CC[C@@H]4CN(c5cccc(C(F)(F)F)n5)C[C@@H]43)c(C)c2c1` [Example 668, (3aR,4S,6aS)-N-[(5-methoxy-3-methyl-1H-indol-2-yl)methyl]-2-[6-(trifluoromethyl)pyridin-2-yl]octahydrocyclopenta[c]pyrrol-4-amine], the half-maximal inhibitory concentration (IC50) was found to be 1550 nM.

`FC(F)(F)c1cccc(N2C[C@H]3CC[C@H](NCc4c[nH]nc4-c4cccs4)[C@H]3C2)n1` [Example 669, (3aR,4S,6aS)-N-{[3-(2-thienyl)-1H-pyrazol-4-yl]methyl}-2-[6-(trifluoromethyl)pyridin-2-yl]octahydrocyclopenta[c]pyrrol-4-amine]: the IC50 turned out to be 800 nM.

Take `Cc1c[nH]c(CN[C@H]2CC[C@@H]3CN(c4cccc(C(F)(F)F)n4)C[C@@H]32)n1` [Example 670, (3aR,4S,6aS)-N-[(4-methyl-1H-imidazol-2-yl)methyl]-2-[6-(trifluoromethyl)pyridin-2-yl]octahydrocyclopenta[c]pyrrol-4-amine]: the IC50 came to 1170 nM.

Take `Cc1cccc2c(CN[C@H]3CC[C@@H]4CN(c5cccc(C(F)(F)F)n5)C[C@@H]43)c[nH]c12` [Example 671, (3aR,4S,6aS)-N-[(7-methyl-1H-indol-3-yl)methyl]-2-[6-(trifluoromethyl)pyridin-2-yl]octahydrocyclopenta[c]pyrrol-4-amine]: the IC50 stood at 1530 nM.

For the compound `Fc1ccc(-c2n[nH]cc2CN[C@H]2CC[C@@H]3CN(c4cccc(C(F)(F)F)n4)C[C@@H]32)cc1` [Example 672, (3aR,4S,6aS)-N-{[3-(4-fluorophenyl)-1H-pyrazol-4-yl]methyl}-2-[6-(trifluoromethyl)pyridin-2-yl]octahydrocyclopenta[c]pyrrol-4-amine], the half-maximal inhibitory concentration (IC50) is 1650 nM.

As to `Cc1ccc(-c2n[nH]cc2CN[C@H]2CC[C@@H]3CN(c4cccc(C(F)(F)F)n4)C[C@@H]32)cc1` [Example 673, (3aR,4S,6aS)-N-{[3-(4-methylphenyl)-1H-pyrazol-4-yl]methyl}-2-[6-(trifluoromethyl)pyridin-2-yl]octahydrocyclopenta[c]pyrrol-4-amine], the IC50 turned out to be 740 nM.

For `CCCCc1nc(CN[C@H]2CC[C@@H]3CN(c4cccc(C(F)(F)F)n4)C[C@@H]32)c[nH]1` [Example 674, (3aR,4S,6aS)-N-[(2-butyl-1H-imidazol-4-yl)methyl]-2-[6-(trifluoromethyl)pyridin-2-yl]octahydrocyclopenta[c]pyrrol-4-amine], the 50% inhibitory concentration (IC50) was found to be 530 nM.

As to `FC(F)(F)c1cccc(N2C[C@H]3CC[C@H](NCc4ncc[nH]4)[C@H]3C2)n1` [Example 675, (3aR,4S,6aS)-N-(1H-imidazol-2-ylmethyl)-2-[6-(trifluoromethyl)pyridin-2-yl]octahydrocyclopenta[c]pyrrol-4-amine], the IC50 was found to be 2220 nM.

Take `Cc1nc(CN[C@H]2CC[C@@H]3CN(c4cccc(C(F)(F)F)n4)C[C@@H]32)c[nH]1` [Example 676, (3aR,4S,6aS)-N-[(2-methyl-1H-imidazol-4-yl)methyl]-2-[6-(trifluoromethyl)pyridin-2-yl]octahydrocyclopenta[c]pyrrol-4-amine]: the concentration for half-maximal inhibition (IC50) was determined as 4200 nM.

Regarding `FC(F)(F)c1cccc(N2C[C@H]3CC[C@H](NCc4c[nH]cn4)[C@H]3C2)n1` [Example 677, (3aR,4S,6aS)-N-(1H-imidazol-4-ylmethyl)-2-[6-(trifluoromethyl)pyridin-2-yl]octahydrocyclopenta[c]pyrrol-4-amine], the IC50 turned out to be 3350 nM.

For `Fc1ccc2[nH]cc(CN[C@H]3CC[C@@H]4CN(c5cccc(C(F)(F)F)n5)C[C@@H]43)c2c1` [Example 678, (3aR,4S,6aS)-N-[(5-fluoro-1H-indol-3-yl)methyl]-2-[6-(trifluoromethyl)pyridin-2-yl]octahydrocyclopenta[c]pyrrol-4-amine], the 50% inhibitory concentration (IC50) amounted to 690 nM.

As for `FC(F)(F)c1cccc(N2C[C@H]3CC[C@H](NCc4[nH]c5ccccc5c4Cl)[C@H]3C2)n1` [Example 679, (3aR,4S,6aS)-N-[(3-chloro-1H-indol-2-yl)methyl]-2-[6-(trifluoromethyl)pyridin-2-yl]octahydrocyclopenta[c]pyrrol-4-amine], the IC50 is 1620 nM.

As for `FC(F)(F)c1cccc(N2C[C@H]3CC[C@H](NCc4c[nH]c5ccc(Cl)cc45)[C@H]3C2)n1` [Example 680, (3aR,4S,6aS)-N-[(5-chloro-1H-indol-3-yl)methyl]-2-[6-(trifluoromethyl)pyridin-2-yl]octahydrocyclopenta[c]pyrrol-4-amine], the IC50 worked out at 1660 nM.

Take `COc1ccc(-c2n[nH]cc2CN[C@H]2CC[C@@H]3CN(c4cccc(C(F)(F)F)n4)C[C@@H]32)cc1` [Example 681, (3aR,4S,6aS)-N-{[3-(4-methoxyphenyl)-1H-pyrazol-4-yl]methyl}-2-[6-(trifluoromethyl)pyridin-2-yl]octahydrocyclopenta[c]pyrrol-4-amine]: the IC50 was 980 nM.

As for `FC(F)(F)c1cccc(N2C[C@H]3CC[C@H](NCc4c[nH]nc4-c4ccccc4)[C@H]3C2)n1` [Example 682, (3aR,4S,6aS)-N-[(3-phenyl-1H-pyrazol-4-yl)methyl]-2-[6-(trifluoromethyl)pyridin-2-yl]octahydrocyclopenta[c]pyrrol-4-amine], the half-inhibitory concentration (IC50) worked out at 870 nM.

Turning to `FC(F)(F)c1cccc(N2C[C@H]3CC[C@H](NCc4nc5ccccc5[nH]4)[C@H]3C2)n1` [Example 683, (3aR,4S,6aS)-N-(1H-benzimidazol-2-ylmethyl)-2-[6-(trifluoromethyl)pyridin-2-yl]octahydrocyclopenta[c]pyrrol-4-amine], the IC50 was 710 nM.

Regarding `FC(F)(F)c1cccc(N2C[C@H]3CC[C@H](NCc4c[nH]c5ccccc45)[C@H]3C2)n1` [Example 684, (3aR,4S,6aS)-N-(1H-indol-3-ylmethyl)-2-[6-(trifluoromethyl)pyridin-2-yl]octahydrocyclopenta[c]pyrrol-4-amine], the IC50 is 1050 nM.

Take `COc1ccc2[nH]cc(CN[C@H]3CC[C@@H]4CN(c5cccc(C(F)(F)F)n5)C[C@@H]43)c2c1` [Example 685, (3aR,4S,6aS)-N-[(5-methoxy-1H-indol-3-yl)methyl]-2-[6-(trifluoromethyl)pyridin-2-yl]octahydrocyclopenta[c]pyrrol-4-amine]: the IC50 is 1100 nM.

In the case of `Fc1ccc2c(CN[C@H]3CC[C@@H]4CN(c5cccc(C(F)(F)F)n5)C[C@@H]43)c[nH]c2c1` [Example 686, (3aR,4S,6aS)-N-[(6-fluoro-1H-indol-3-yl)methyl]-2-[6-(trifluoromethyl)pyridin-2-yl]octahydrocyclopenta[c]pyrrol-4-amine], the half-inhibitory concentration (IC50) turned out to be 880 nM.

Turning to `Fc1cc(F)cc(-c2n[nH]cc2CN[C@H]2CC[C@@H]3CN(c4cccc(C(F)(F)F)n4)C[C@@H]32)c1` [Example 687, (3aR,4S,6aS)-N-{[3-(3,5-difluorophenyl)-1H-pyrazol-4-yl]methyl}-2-[6-(trifluoromethyl)pyridin-2-yl]octahydrocyclopenta[c]pyrrol-4-amine], the concentration for half-maximal inhibition (IC50) worked out at 1270 nM.

`FC(F)(F)c1cccc(N2C[C@H]3CC[C@H](NCc4c[nH]c(-c5ccccc5)n4)[C@H]3C2)n1` [Example 688, (3aR,4S,6aS)-N-[(2-phenyl-1H-imidazol-4-yl)methyl]-2-[6-(trifluoromethyl)pyridin-2-yl]octahydrocyclopenta[c]pyrrol-4-amine]: the IC50 is 1030 nM.

For `COc1cccc2[nH]cc(CN[C@H]3CC[C@@H]4CN(c5cccc(C(F)(F)F)n5)C[C@@H]43)c12` [Example 689, (3aR,4S,6aS)-N-[(4-methoxy-1H-indol-3-yl)methyl]-2-[6-(trifluoromethyl)pyridin-2-yl]octahydrocyclopenta[c]pyrrol-4-amine], the concentration for half-maximal inhibition (IC50) was determined as 820 nM.

Regarding `Fc1cnc2[nH]cc(CN[C@H]3CC[C@@H]4CN(c5cccc(C(F)(F)F)n5)C[C@@H]43)c2c1` [Example 690, (3aR,4S,6aS)-N-[(5-fluoro-1H-pyrrolo[2,3-b]pyridin-3-yl)methyl]-2-[6-(trifluoromethyl)pyridin-2-yl]octahydrocyclopenta[c]pyrrol-4-amine], the IC50 stood at 750 nM.
